Results: US20030088057A1, “PEPTIDE SUBSTRATES PHOSPHORYLATED BY P21-ACTIVAGED PROTEIN KINASE STATEMENT REGARDING FEDERALLY SPONSORED REASEARCH OR DEVELOPMENT” (priority 1998, published 2003)
Read-outs that look alike come from different tables or passages of the source. No end group written: not given here.

Tests used:
γ-PAK [1] = test: Kinetic parameters (Km, Vmax) for phosphorylation of synthetic peptides by γ-PAK; assay type: biochemical, rabbit
Experimental: (§1) Assays with peptides (I mM) were carried out with γ-PAK (1.6-5.6 units) in 25 μL reaction mixtures incubated for 30 min at 30° C. under conditions described above, except that 0.4 mg/mL of bovine serum albumin was added and the specific activity of ATP was 300-2000 cpm/pmol. Reactions were terminated with 5 μL of 100 mM ATP, and the amount of ^32p incorporated was quantitated by precipitation of 20 μL aliquots on P81 phosphocellulose paper with 75 mM H3PO4 as described previously [Bensen, E. S., et al., Biochim. Biophys. Acta, 1292:249-258 (1996)]. Peptides containing only one basic amino acid were analyzed by thin-layer electrophoresis on cellulose sheets for 2 h at 600 V with pyridine/acetic acid/water (10:100:890), pH 3.5, as solvent, as described previously [Bensen, E. S., et al., supra]. Activation of γ-PAK by autophosphorylation in the presence of Cdc42(GTPγS) was performed as previously described [Jakobi, R., et al., supra]. γ-PAK was also activated by limited digestion with trypsin as described previously [Rooney, R. D., et al., (1996), supra].

γ-PAK [2] = test: Rates of phosphorylation of synthetic peptides by γ-PAK; assay type: biochemical, rabbit; details: for 32P incorporated, %: AKRASAA taken as 100%; for substrate for γ-PAK (in words): synthetic peptides; for rate of phosphorylation compared to AKRASAA: relative to AKRASAA; for rate of phosphorylation compared to ARRASVA: other studies, ARRASVA = 100%
Text: (§2) A. Materials. γ-PAK was purified from rabbit reticulocytes to apparent homogeneity by chromatography on DEAE-cellulose, SP-Sepharose, protamine agarose, and FPLC on Mono S and Mono Q. Histone I (type IIIS), mixed histone (type IIAS), trypsin (L-1-tosylamido-2-phenylethyl chloromethyl ketone treated), soybean trypsin inhibitor, bovine serum albumin (fatty acid free), and myelin basic protein were purchased from Sigma. Purified histones 2B and 4 were purchased from Boehringer-Mannheim. Myosin light chain from rabbit skeletal muscle was a gift from Dr. James Stull, University of Texas Southwestern Medical Center, Dallas, Tex.; rat prolactin was provided by Dr. Ameae Walker, University of California, Riverside, Calif.; and the purified catalytic subunit of cAMP-dependent protein kinase from bovine heart was a gift from Dr. William H. Fletcher, J. L. Pettis Memorial V. A. Hospital, Loma Linda, Calif. Protein kinase C was purified from bovine brain according to the procedure of Walton et al. [Walton, G. M., et al., Anal Biochem., 161:425-437 (1987)], with modifications [Venema, R. C., et al., J. Biol. Chem., 266:5298-5302 (1991)]. The clone for GST-Cdc42 was generously provided by Dr. Channing Der, University of North Carolina, Chapel Hill, N.C. Cellulose thin-layer chromatography sheets were from Kodak.
D. Phosphorylation Assays. Phosphorylation of protein substrates was carried out in 35 μL reaction mixtures containing 20 mM Tris-HCl, pH 7.4, 10 mM MgCl2, 30 mM 2-mercaptoethanol, 0.2 mM ATP (specific activity =1000 cpm/pmol), 2 μg of protein substrate, and 20 units of active γ-PAK (an enzyme unit is defined as the amount of enzyme that incorporates 1 pmol of phosphate into histone IIAS/ min at 30°. Under these conditions, phosphate incorporation was linear and initial rates of phosphorylation were measured. After incubation at 30° C. for 15 min, reactions were terminated by the addition of 5 μL of 100 mM nonlabeled ATP and sample buffer for gel electrophoresis [Hathaway, G. M., et al., Methods Enzymol., 60:495-511 (1979)]. Reaction mixtures were subjected to SDS-PAGE on 15% polyacrylamide gels followed by autoradiography. Phosphorylation was quantified by excising the protein band and counting the incorporated ^32P in a liquid scintillation counter. The specific activity of γ-PAK was 400 pmol min^−1 μg^−1 as reported previously using 0.2 mM ATP and 1 mg/mL mixed histone as substrate [Rooney, R. D., et al., (1996), supra].
as §1
Target sequence in this assay (Q29502 249-500 limits assumed): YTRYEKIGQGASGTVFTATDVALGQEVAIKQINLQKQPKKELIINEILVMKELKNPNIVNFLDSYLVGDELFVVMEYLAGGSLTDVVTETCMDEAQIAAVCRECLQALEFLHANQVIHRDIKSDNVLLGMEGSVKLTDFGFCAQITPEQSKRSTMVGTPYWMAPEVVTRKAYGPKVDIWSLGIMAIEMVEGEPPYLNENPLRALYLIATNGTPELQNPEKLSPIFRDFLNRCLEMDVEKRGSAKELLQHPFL

PKC = test: Rates of phosphorylation of synthetic peptides by PKC; assay type: biochemical, bovine; details: for 32P incorporated: PKC (3.4 units), with Ca2+ and phospholipids, 0.14 mM ATP; for 32P incorporated, %: PKC, AKRASAA taken as 100%
Text: as §2
Reactions with PKA (10.5 units) were carried out under the same conditions as with γ-PAK except that 0.14 mM ATP was used. Reactions with PKC (3.4 units) were performed as with PKA, with the addition of 0.4 mM CaCl2, phosphatidylinositol (15 μg/mL), phosphatidylserine (15 μg/ mL), and 1,2-diolein (3 μg/mL), as described [Tuazon, P. T., et al., (1989), supra]. A unit of PKA or PKC is defined as the amount of enzyme that incorporates 1 pmol of phosphate/min at 30° C. into histone IIAS or histone 1, respectively.
PKA and PKC are known to require basic amino acids on the N-terminal side of the phosphorylatable serine/ threonine. To distinguish their substrate specificities from that of γ-PAK, the relative rates of phosphorylation were determined with the synthetic peptide substrates using the conditions for γ-PAK, with the addition of Ca^2+ and phospholipids for PKC. The rates shown in Table 5 are calculated with equivalent units of enzyme; the rate of phosphorylation of the peptide AKRASAA (SEQ ID NO:6) is taken as 100% for all three enzymes. As would be expected, PKA preferentially phosphorylated the peptides that contained RR or RK at the −3 and −2 positions and with […] residues or proline at the −4 and −1 positions inhibitory. PKC recognized SKR>RKS>KKS. The most notable difference between γ-PAK and PKA or PKC is the effect of acidic residues on the susceptibility of the peptide to be phosphorylated. An acidic residue in the −1 or −4 position was beneficial for γ-PAK but was detrimental for both PKA and PKC (Table 5). […] In addition, γ-PAK could not tolerate an arginine in the −3 position when lysine was in the −2 position.

[3] = Cdc42(GTPγS)-activated γ-PAK, peptide 1 mM, KKRKSAA = 100
[4] = proteolytically (trypsin) activated γ-PAK, peptide 1 mM, compared to KKRKSAA = 100
[5] = proteolytically activated γ-PAK (5.6 units), peptide 1 mM, 30 min at 30° C.
[6] = γ-PAK, calculated with equivalent units of enzyme
[7] = Table 2, influence of basic amino acids, γ-PAK 1.6 units, ATP 0.2 mM
[8] = Table 2, influence of basic amino acids, γ-PAK 1.6 units, ATP 0.2 mM, read-out: Km
[9] = Table 4, influence of proline and glycine
[10] = Table 4, influence of proline and glycine, read-out: Km

Row | Molecule | rel rate (%) (γ-PAK [2]; [3]) | rel rate (%) (γ-PAK [2]; [4]) | 32P incorporated (γ-PAK [2]; [5]) [pmol/min/µg] | substrate for γ-PAK (in words) (γ-PAK [2]) | Km (γ-PAK [1]; [8]) [µM] | further results
1 | Nc1ncnc2c1ncn2[C@@H]1O[C@H](COP(=O)(O)OP(=O)(O)OP(=O)(O)O)[C@@H](O)[C@H]1O [ATP, reference compound] | – | – | – | – | – | Km (γ-PAK [1]; at concentrations of 1-3 mM peptide, read-out: Km for ATP): 65 to 80 µM
2 | AAAASKR (AAAASKR-NH2) [synthetic peptide with an amide C-terminal group] | 0 | 0 | 0 | – | – | 32P incorporated, % (γ-PAK [2]; γ-PAK): 0%; 32P incorporated (γ-PAK [2]; [6]): 0 pmol/unit; 32P incorporated (PKC): 13.3 pmol/unit; 32P incorporated, % (PKC): 403%
3 | AAKKSAA (AAKKSAA-NH2) [synthetic peptide with an amide C-terminal group] | 0 | 0 | 0 | poor substrates | – | –
4 | AAKRSAA (AAKRSAA-NH2) [synthetic peptide with an amide C-terminal group] | 0 | 0 | 0 | poor substrates | – | –
5 | AARASAA (AARASAA-NH2) [synthetic peptide with an amide C-terminal group] | 56 | 56 | 169 | reacted to a small but significant extent | 1880 | Vmax (γ-PAK [1]; [7]): 2.27 pmol/min; rate of phosphorylation compared to AKRASAA (γ-PAK [2]; γ-PAK): 40%
6 | AKRASGA (AKRASGA-NH2) [synthetic peptide with an amide C-terminal group] | – | 107 | 324 | – | – | increase of Km compared to AKRASAA (γ-PAK [1]): 4 fold; increase of Vmax compared to AKRASAA (γ-PAK [1]): 3 fold; overall rate of phosphorylation (Vmax/Km) compared to AKRASAA (γ-PAK [1]): slight overall decrease; Vmax (γ-PAK [1]; [9]): 3.49 pmol/min; Km (γ-PAK [1]; [10]): 2090 µM
7 | AKRASPA (AKRASPA-NH2) [synthetic peptide with an amide C-terminal group] | 3 | 0 | 0 | virtually abolished phosphorylation | – | Km (γ-PAK [1]; [10]): > 5000 µM
8 | AKRGSAA (AKRGSAA-NH2) [synthetic peptide with an amide C-terminal group] | – | 126 | 381 | – | – | increase of Km compared to AKRASAA (γ-PAK [1]): 7 fold; increase of Vmax compared to AKRASAA (γ-PAK [1]): 6 fold; overall rate of phosphorylation (Vmax/Km) compared to AKRASAA (γ-PAK [1]): slight overall decrease; Vmax (γ-PAK [1]; [9]): 6.44 pmol/min; Km (γ-PAK [1]; [10]): 3520 µM
9 | AKRKSAA (AKRKSAA-NH2) [synthetic peptide with an amide C-terminal group] | 158 | 181 | 548 | – | 480 | Vmax (γ-PAK [1]; [7]): 2.34 pmol/min
10 | AKRPSAA (AKRPSAA-NH2) [synthetic peptide with an amide C-terminal group] | 11 | 6 | 16 | virtually abolished phosphorylation | – | Km (γ-PAK [1]; [10]): > 5000 µM; 32P incorporated, % (γ-PAK [2]; γ-PAK): 5%; 32P incorporated (γ-PAK [2]; [6]): 1.2 pmol/unit; 32P incorporated (PKC): 3.9 pmol/unit; 32P incorporated, % (PKC): 118%
11 | ARAASVA [synthetic peptide] | – | – | – | reacted to a small but significant extent | – | rate of phosphorylation compared to ARRASVA (γ-PAK [2]; γ-PAK): 40%; rate of phosphorylation compared to AKRASAA (γ-PAK [2]; γ-PAK): 40%
12 | ARKASAA (ARKASAA-NH2) [synthetic peptide with an amide C-terminal group] | 9 | 6 | 16 | poor substrates | > 5000 | 32P incorporated, % (γ-PAK [2]; γ-PAK): 3%; 32P incorporated (γ-PAK [2]; [6]): 0.9 pmol/unit; 32P incorporated (PKC): 5.7 pmol/unit; 32P incorporated, % (PKC): 173%
13 | ARRASAA (ARRASAA-NH2) [synthetic peptide with an amide C-terminal group] | 134 | 129 | 391 | as good a substrate as AKRASAA | 650 | Vmax (γ-PAK [1]; [7]): 2.11 pmol/min; 32P incorporated, % (γ-PAK [2]; γ-PAK): 93%; 32P incorporated (γ-PAK [2]; [6]): 25.0 pmol/unit; 32P incorporated (PKC): 18.8 pmol/unit; 32P incorporated, % (PKC): 570%
14 | ARRASVA [synthetic peptide] | – | – | – | – | – | rate of phosphorylation compared to ARRASVA (γ-PAK [2]; γ-PAK): 100%
15 | KKAASAA (KKAASAA-NH2) [synthetic peptide with an amide C-terminal group] | 3 | 0 | 0 | did not | – | –
16 | KKRASAA (KKRASAA-NH2) [synthetic peptide with an amide C-terminal group] | 181 | 193 | 586 | – | 370 | Vmax (γ-PAK [1]; [7]): 1.59 pmol/min
17 | KKRKSAA [model peptide patterned after the phosphorylation site of nucleocapsid protein NC] | 100 | 100 | 302 | – | 610 | Vmax (γ-PAK [1]; [7]): 1.84 pmol/min; Vmax (γ-PAK [1]; text b67, b73): 302 pmol/min/µg; 32P incorporated, % (γ-PAK [2]; γ-PAK): 72%; 32P incorporated (γ-PAK [2]; [6]): 19.2 pmol/unit; 32P incorporated (PKC): 11.1 pmol/unit; 32P incorporated, % (PKC): 370%
